Experimental data: patent US8609814B2, “Modified globin proteins with altered electron transport pathway” (University of Essex Enterprises Limited, priority 2007, dated 2013)

Experiments:
[1] = ferryl human haemoglobin reduction kinetics by ascorbate; type: biochemical; conditions: reductant ascorbate; 10 μM ferryl protein; sodium phosphate pH 7.4; double exponential fit
Description: Recombinant human haemoglobin was reacted with peroxide and the kinetics of ferryl haem reduction by ascorbate determined as described in example 1. The time course of ferryl haem reduction is not single exponential, as observed with myoglobin, but can be described using a double exponential function that generates two rate constants, one representing the observed rate constant for ferryl reduction of the alpha subunit and one representing the observed rate constant for ferryl reduction of the beta subunit.

[2] = ferryl myoglobin reduction kinetics by deferiprone; type: biochemical; conditions: for concentration dependence of ferryl reduction rate constant (high affinity through-protein electron transfer pathway): reductant deferiprone, ferryl myoglobin 10 μM, sodium phosphate pH 7.4, 25° C.
Description: In this example the kinetics of the reduction of ferryl haem from myoglobin from different species to ferric haem protein were examined kinetically to determine the presence or absence of a high affinity-through protein pathway. Following the procedure, ferric horse myoglobin from Sigma-Aldrich (Poole, Dorset, UK, further purified by gel filtration), or recombinant ferric Aplysia myoglobin Mb (20 μM) in 5 mM sodium phosphate pH 7.4 was reacted with H2O2 (20 μM) at 25° C. for 15 min. At this time conversion of ferric myoglobin to ferryl myoglobin was greater than 95% as measured by addition of sodium sulfide (1 mM). Catalase (10 nM) was added to remove unreacted H2O2 and was left to react for a further 1 min. At the pH used the ferryl haem protein is stable for several hours. Reductant was then added in 0.1M sodium phosphate pH 7.4 in a 1:1 volume ratio so that final concentration of ferryl myoglobin was 10 μM. The pH may be ‘jumped’ to other values where the ferryl haem is unstable using other strong buffers (e.g. 0.1M sodium acetate, pH 5). The optical spectrum was followed until reaction was complete. The time course (425 nm-408 nm) was fitted to a single exponential function using the least squares method. These rate constants were then plotted as a function of reductant concentration and this profile fitted (least squares method) to a double rectangular hyperbola (FIG. 1):
Where ka and kb are the maximum rates for each hyperbola and KD1 and KD2 are the dissociation constants, S is the concentration of the reductant and AR is the rate constant for ferryl auto-reduction.
Wild-type and recombinant sperm whale myoglobin and recombinant Tyr103>Phe sperm whale myoglobin were reacted with peroxide and the kinetics of ferryl haem reduction by deferiprone determined as described in example 1. The through-protein electron transfer pathway, evident in wild type sperm whale myoglobin, is not observed in the Tyr103>Phe mutant (FIG. 2).

## wild type ferryl human haemoglobin: recombinant wild type human haemoglobin, alpha and beta subunits
[1]
  concentration dependence of ferryl reduction rate constant, alpha subunit: double rectangular hyperbola concentration dependence

## Tyr103>Phe mutant: recombinant Tyr103>Phe sperm whale myoglobin
[2]
  concentration dependence of ferryl reduction rate constant (high affinity through-protein electron transfer pathway): not observed

## wild type sperm whale myoglobin: wild-type recombinant sperm whale myoglobin
[2]
  concentration dependence of ferryl reduction rate constant (high affinity through-protein electron transfer pathway): evident

B1: Horse myoglobin: ferric horse myoglobin from Sigma-Aldrich, further purified by gel filtration (protein, UniProt P68082 2-154, looked up)
Myoglobin: GLSDGEWQQVLNVWGKVEADIAGHGQEVLIRLFTGHPETLEKFDKFKHLKTEAEMKASEDLKKHGTVVLTALGGILKKKGHHEAELKPLAQSHATKHKIPIKYLEFISDAIIHVLHSKHPGDFGADAQGAMTKALELFRNDIAAKYKELGFQG
modifications: ferric
notes: ferric horse myoglobin from Sigma-Aldrich, further purified by gel filtration
[2]
  concentration dependence of ferryl reduction rate constant (high affinity through-protein electron transfer pathway): shows a double rectangular hyperbola concentration dependence

B2: myoglobin: myoglobin in its ferryl oxidation state, two site model based on FIGS. 1 and 2 data (protein, UniProt P02144 2-154, looked up)
Myoglobin: GLSDGEWQLVLNVWGKVEADIPGHGQEVLIRLFKGHPETLEKFDKFKHLKSEDEMKASEDLKKHGATVLTALGGILKKKGHHEAEIKPLAQSHATKHKIPVKYLEFISECIIQVLQSKHPGDFGADAQGAMNKALELFRKDMASNYKELGFQG
modifications: ferryl oxidation state
[2]; two site model of FIGS. 1 and 2 data, site at or close to Tyr103
  kmax, transfer of an electron through the protein to the ferryl haem iron (high affinity site): ≈ 0.01 s^−1
